Test results: patent EP2822595B1, “SPHINGOSINE-1 -PHOSPHATE RECEPTORS MODULATORS FOR IMPROVING VACCINE IMMUNIZATION” (Istituto Superiore di Sanità, priority 2012, dated 2013)
Where two headings read alike, the source gives them in different places.

Legend:
[1] = tested on: TT-specific antibody secreting cells (ASC); assay type: in vivo, BALB/c mice; settings: bone marrow
[2] = tested on: antigen-specific CD4^+ and CD8^+ proliferating cells; assay: CFSE proliferation assay of TT-specific T lymphocytes after systemic (intraperitoneal) immunization; assay type: in vivo, BALB/c mice; settings: 4 months after the second intraperitoneal immunization, vs non treated, p < 0.05
[3] = tested on: TT-specific antibody responses; assay type: in vivo, BALB/c mice; settings: FTY720 0.5 mg/Kg intragastric 48 and 24 hours before intranasal TT+CT
[4] = tested on: Ova-specific CD4^+ and CD8^+ T lymphocytes; assay type: in vivo, BALB/c mice; settings: 8 months after the fourth immunization, vs non treated
[5] = tested on: patients affected by Multiple Sclerosis; settings: cited from earlier work
[6] = tested on: TT-specific antibody responses; assay type: in vivo, BALB/c mice; settings: for titre of TT-specific IgA antibodies: one week after the recall dose, vs TT+CT without treatment
[7] = tested on: TT-specific antibody responses; assay type: in vivo, BALB/c mice; settings: sera
[8] = tested on: S1P receptors (S1P1, S1P3, S1P4 e S1P5); settings: 4 of 5 S1P receptors (S1P1, S1P3, S1P4 e S1P5); cited from earlier work
[9] = tested on: antigen-specific CD4^+ and CD8^+ T lymphocytes; assay: CFSE proliferation assay of TT-specific T lymphocytes after intranasal immunization; assay type: in vivo, BALB/c mice
[10] = oral, 0.5 and 1.25 mg a day, phase III clinical trials
[11] = serum, TT-specific, TT+CT intranasal plus FTY720 vs without, at different analyzed kinetic points
[12] = draining (mediastinal) lymph nodes, two weeks after the fourth immunization, vs immunized non treated mice, p < 0.05
[13] = draining lymph nodes, 8 months after the fourth immunization, one week after one recall dose, vs non treated, p < 0.05
[14] = spleen, 8 months after the fourth immunization, after one recall dose, vs non treated
[15] = spleen, two weeks after the fourth immunization, treated vs non treated

For `CCCCCCCCc1ccc(CCC(N)(CO)CO)cc1.Cl` [FTY720, 2-amino-2-(2-(4-octylphenyl)ethyl)propane-1,3-diol hydrochloride], the “number of anti-TT IgG ASC” value ([1]; two weeks after the fourth immunization, immunized and not treated mice: 60) was 115 ASC/1×10^6 of cells, the “number of anti-TT IgA ASC” value ([1]; two weeks after the fourth immunization, non treated: 40) was 80 ASC/1×10^6 of cells and the “number of anti-TT IgG ASC” value ([1]; two weeks after the recall dose (4 months after fourth immunization), non treated: 123) was 240 ASC/1×10^6 of cells. For the same compound, the “number of anti-TT IgA ASC” value ([1]; two weeks after the recall dose, non treated: 58) was 136 ASC/1×10^6 of cells, the “percentage of antigen-specific CD4^+ proliferating cells” value ([2]; lymph nodes) was “higher percentage” and the “percentage of antigen-specific CD8^+ proliferating cells” value ([2]; lymph nodes) was “higher percentage”. The “percentage of antigen-specific CD4^+ proliferating cells” value ([2]; spleen) was “higher percentage”, the “percentage of antigen-specific CD8^+ proliferating cells” value ([2]; spleen) was “higher percentage” and the “titre of anti-tetanus IgG antibodies” value ([3]; one week after the second immunization, data not showed) was “only the titre of anti-tetanus IgG antibodies in mice immunized with TT and CT was appreciable”. For the same compound, the “titre of IgG antibody specific for the TT” value ([3]; one week after the third immunization) was “higher in mice immunized with TT and CT in the absence of treatment”, the “percentage of Ova-specific CD4^+ T lymphocytes” value ([4]; draining lymph nodes) was “higher percentage” and the “percentage of Ova-specific CD8^+ T lymphocytes” value ([4]; draining lymph nodes) was “higher percentage”. The “percentage of Ova-specific CD4^+ T lymphocytes” value ([4]; spleen) was “higher percentage”, the “percentage of Ova-specific CD8^+ T lymphocytes” value ([4]; spleen) was “higher percentage” and the infectious complications ([5]; mainly in patients who received the higher dose (1.25 mg a day)) was “some infectious complications”. For the same compound, the “effectiveness in Multiple Sclerosis patients” value [5, 10] was “effective”, the “tolerability in Multiple Sclerosis patients” value [5, 10] was “well tolerated” and the “titre of TT-specific IgA antibodies” value ([6]; saliva) was “higher titres”. The “titre of IgG1 subclass” value [6, 11] was “Increase of the titre”, the “titre of IgG2a subclass” value [6, 11] was “Increase of the titre” and the “anti-TT IgG antibody titre” value ([6]; serum, four months after the fourth immunization (pre-boost), vs immunized mice without treatment) was “maintained at higher levels”. The “IgG antibodies specific for the TT” value ([6]; serum, one week after boost given four months after the fourth immunization, vs immunized mice without treatment) was “higher levels”, the “anti-tetanus IgG antibody titre” value ([6]; serum, one week after the fourth intranasal immunization, TT+CT plus FTY720 (761) vs TT+CT without treatment (304), apparently times over TT only) was 761 and the “anti-tetanus IgG antibody titre” value ([6]; serum, one week after the second intranasal immunization with TT+CT, FTY720 0.5 mg/Kg intragastric the day after first and second immunization, TT+CT without treatment: 54 times) was 305 times with respect to the titre of mice which received only TT. The “anti-tetanus IgG antibody titre” value ([6]; serum, one week after the third intranasal immunization, TT+CT plus FTY720 vs TT+CT without treatment) was “increase”, the “titre of TT-specific IgA antibodies” value ([6]; vaginal washes (VW)) was “higher titres” and the “titre of anti-tetanus IgG antibodies, differences between the two groups” value ([7]; one month after the second intraperitoneal immunization, treated vs non treated, differences decreased) was “still detectable”. For the same compound, the “titre of anti-tetanus IgG antibodies” value ([7]; one week after the first intraperitoneal immunization with TT+CT, FTY720 0.5 mg/Kg intragastrically the day after immunization, TT+CT without treatment: 63 times) was 203 times with respect to the titre of mice immunized only with TT, the “titre of anti-tetanus IgG antibodies” value ([7]; one week after the second intraperitoneal immunization, TT+CT plus FTY720 (575) vs TT+CT without treatment (152), apparently times over TT only) was 575 and the “agonist activity at S1P receptors” value [8] was “strong agonist”. For the same compound, the “proliferation of antigen-specific CD4^+ T lymphocytes” value [9, 12] was “significantly higher”, the “proliferation of antigen-specific CD8^+ T lymphocytes” value [9, 12] was “significantly higher” and the “proliferation of antigen-specific CD4^+ T lymphocytes” value [9, 13] was “higher”. The “proliferation of antigen-specific CD8^+ T lymphocytes” value [9, 13] was “higher”, the “percentage of antigen-specific CD4^+ T lymphocytes” value [9, 14] was “higher percentage” and the “percentage of antigen-specific CD8^+ T lymphocytes” value [9, 14] was “higher percentage”. For the same compound, the “proliferation of antigen-specific CD4^+ T lymphocytes” value [9, 15] was “comparable” and the “proliferation of antigen-specific CD8^+ T lymphocytes” value [9, 15] was “comparable”.
